Data taken from US9217014B2, “Antifungal agents and uses thereof” (Cidara Therapeutics, Inc., priority 2011, dated 2015).
Read-outs that look alike come from different tables or passages of the source. *1 amine or outer side, *2 acyl side, *3 side chain or, on linkers, in order; H or OH if unused. Where a SMILES comes first, the peptide text is derived from it. Bridges are numbered along the chain shown (N, C = ends). [ ]: non-standard residue; d: D form. The star is where a group is joined. pTerphenylCO(4''-OnC5H11) = CCCCCOc1ccc(-c2ccc(-c3ccc(C(=O)*)cc3)cc2)cc1; Orn(4R-OH,5R-OH) = O=C([C@H](C[C@@H](O)[C@@H](O)N[*:3])N[*:1])[*:2]; hTyr(3S-OH,4S-OH) = N[C@H](C(=O)O)[C@H](O)[C@@H](O)c1ccc(O)cc1; Pro(3S-OH,4S-Me) = C[C@H]1CN[C@H](C(=O)O)[C@H]1O; Hyp = O=C(O)[C@@H]1C[C@@H](O)CN1

Columns and labels:
[1] = Pharmacokinetics in beagle dogs, intravenous; type: in vivo; settings: 1.4 mg/kg intravenous slow bolus, mean ± SEM, n = 4 beagle dogs
Protocol: The test articles were administered to beagle dogs weighing approximately 6-10 kg. Each test article was dosed at 1.4 mg/kg in aqueous saline (with or without 0.5% Tween) over course of 1-10 minutes. […] The dogs were fasted at least 12 hours prior to each dosing and offered food after the 4-hour blood sample was taken; water was withheld for 1 hour prior to and 4 hours following each dosing event. The dose for each animal was based on its most recent body weight. The test article was injected intravenously via a catheter placed in the cephalic vein as a slow bolus.
Blood was collected via the jugular vein. All blood samples (˜1 mL each) were collected into K3EDTA tubes. Following blood collection, the samples were immediately inverted several times and were held on wet ice pending centrifugation. The samples were centrifuged within ˜30 minutes of collection under refrigeration (˜5° C. for ˜10 minutes at ˜2000 g) to obtain plasma. The plasma was frozen immediately on dry ice after separation. The plasma samples were stored at approximately −70° C. until analysis.
Plasma (100 μL) was precipitated with 400 μL of 0.1% formic acid in acetonitrile containing the internal standard (100 ng/mL pneumocandin). The samples were then capped and vortexed for about 30 seconds followed by centrifugation at 14,000 rpm at room temperature for 10 minutes. Following centrifugation 200 μL of supernatant was transferred to plastic autosampler vials containing 200 μL of 0.1% formic acid in water and vortexed. Samples were then analyzed by LCMSMS.
All pharmacokinetic calculations were performed using WinNonlin version 4.1 (Pharsight Corp) by noncompartmental analysis.

C. albicans R303 = experiment: mouse candidiasis infection model, IP administration, kidney fungal burden; type: in vivo
Method in brief: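 Female CD-1 mice rendered neutropenic with IP cyclophosphamide 150 mg/kg at days −4 and −1. Mice infected IV via tail vein with C. albicans R303, then given test compounds IP 2 h post-infection. Kidney fungal burden determined as CFU by plate counts; values are means of four mice.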

[2] = Solubility in aqueous buffers of varying pH; type: physicochemical; settings: ambient temperature, compound 1 as acetate salt
Protocol: The solubility of compound 1 (acetate salt) was measured in aqueous buffers of varying pH to assess this compound's suitability for formulation in an aqueous carrier for administration by injection (e.g., intravenous or intramuscular injection).

[3] = Solubility in non-aqueous solvents; type: physicochemical; settings: organic solvent or mixture, compound 1 as acetate salt
Protocol: The solubility of compound 1 (acetate salt) was also measured in non-aqueous solvents to assess this compound's suitability for formulation in non-aqueous carriers.

SMILES: CCCCCOc1ccc(-c2ccc(-c3ccc(C(=O)N[C@H]4C[C@@H](O)[C@@H](O)NC(=O)[C@@H]5[C@@H](O)[C@@H](C)CN5C(=O)[C@H]([C@@H](C)O)NC(=O)[C@H]([C@H](O)[C@@H](O)c5ccc(O)cc5)NC(=O)[C@@H]5C[C@@H](O)CN5C(=O)[C@H]([C@@H](C)O)NC4=O)cc3)cc2)cc1 [anidulafungin, reference compound] ({pTerphenylCO(4''-OnC5H11)}-[Orn(4R-OH,5R-OH)]T[Hyp][hTyr(3S-OH,4S-OH)]T[Pro(3S-OH,4S-Me)]; lactam 1-C)
- CI [1]: 0.785 ± 0.032 mL/min/kg
- Vz [1]: 0.779 ± 0.0304 L/kg
- half-life ([1]; beagle, dog, in vivo, iv, 1.4 mg/kg, read-out: T ½ (converted)): ~12 h
- log reduction at 1 mg/kg (C. albicans R303; Candida albicans, R303, ip, 24 h, read-out: Difference from 24-h control, Fifth run, IP 1 mg/kg): 2.07
- log reduction at 1 mg/kg (C. albicans R303; Candida albicans, R303, ip, 24 h, read-out: Difference from 24-h control, First run, IP 1 mg/kg): 1.83
- log reduction at 0.5 mg/kg (C. albicans R303; Candida albicans, R303, ip, 24 h, read-out: Difference from 24-h control, Fourth run, IP 0.5 mg/kg): 1.29
- log reduction at 1.5 mg/kg (C. albicans R303; Candida albicans, R303, ip, 24 h, read-out: Difference from 24-h control, Fourth run, IP 1.5 mg/kg): 4.03
- log reduction at 0.5 mg/kg (C. albicans R303; Candida albicans, R303, ip, 24 h, read-out: Difference from 24-h control, Second run, IP 0.5 mg/kg): 0.47
- log reduction at 1.5 mg/kg (C. albicans R303; Candida albicans, R303, ip, 24 h, read-out: Difference from 24-h control, Second run, IP 1.5 mg/kg): 2.11
- log reduction at 4.5 mg/kg (C. albicans R303; Candida albicans, R303, ip, 24 h, read-out: Difference from 24-h control, Second run, IP 4.5 mg/kg): 3.78
- Mean log10 CFU/kidneys (±SEM) (C. albicans R303; Fifth run, IP 1 mg/kg, kidneys 24 h after infection): 3.06 ± 0.18 log10 CFU/kidneys
- Mean log10 CFU/kidneys (±SD) (C. albicans R303; First run, IP 1 mg/kg, neutropenic mice, kidneys 24 h after infection): 3.37 ± 0.72 log10 CFU/kidneys
- Mean log10 CFU/kidneys (±SEM) (C. albicans R303; Fourth run, IP 0.5 mg/kg, kidneys 24 h after infection): 3.81 ± 0.19 log10 CFU/kidneys
- Mean log10 CFU/kidneys (±SEM) (C. albicans R303; Fourth run, IP 1.5 mg/kg, kidneys 24 h after infection): 1.08 ± 0.08 log10 CFU/kidneys
- Mean log10 CFU/kidneys (±SEM) (C. albicans R303; Second run, IP 0.5 mg/kg, kidneys 24 h after infection): 4.41 ± 0.12 log10 CFU/kidneys
- Mean log10 CFU/kidneys (±SEM) (C. albicans R303; Second run, IP 1.5 mg/kg, kidneys 24 h after infection): 2.77 ± 0.20 log10 CFU/kidneys
- Mean log10 CFU/kidneys (±SEM) (C. albicans R303; Second run, IP 4.5 mg/kg, kidneys 24 h after infection): 1.10 ± 0.38 log10 CFU/kidneys
- solubility ([2]; aqueous buffer, pH 3 (0.01M formate buffer)): < 10 µg/mL
- solubility ([2]; aqueous buffer, pH 4.6 (0.1M acetate buffer)): < 10 µg/mL
- solubility ([2]; aqueous buffer, pH 5.6 (0.1M acetate buffer)): < 10 µg/mL
- solubility ([2]; aqueous buffer, pH 7.4 (0.1M phosphate buffer)): < 10 µg/mL
- solubility ([2]; aqueous buffer, pH 8.5 (0.01M TRIS buffer)): < 10 µg/mL
- solubility ([2]; saline or isotonic, 0.9% saline): < 10 µg/mL
- solubility ([2]; simulated gastric fluid, pH 1 (0.1M HCl)): < 10 µg/mL
- solubility ([3]; Ethanol (EtOH)): > 17600 µg/mL
- solubility ([3]; Glycerol): 1500 µg/mL
- solubility ([3]; PEG400): > 26800 µg/mL
- solubility ([3]; Propylene glycol(PG)): > 17200 µg/mL
